Tests used:
[1] = Ex-vivo contrast-enhanced MRI (3 Tesla, T1 inversion recovery) measurement of gadodiamide partition coefficient / relative distribution volume in postmortem myocardium samples; assay type: in vitro ADME, human; settings: 24 hours incubation in ~3 mM gadodiamide-saline solution
Description: As an example of the above-described methodology, eight samples of human myocardium were obtained postmortem and a fast spin-echo sequence (3 Tesla) with non-slice selective inversion pulse performed before and after immersion in a gadodiamide saline solution for determination of the gadodiamide partition coefficient. T1 values were calculated from the inversion recovery signal curves. The same samples were fixed in formalin, and the collagen volume fraction was determined by the picrosirius red method using a semi-automated, polarized, digital microscopy system. […] Moreover, there was a significant positive correlation between the two methods, across all three histological categories of myocardial fibrosis (r=0.73; p=0.017). Thus, these findings indicate an expanded potential for contrast enhanced MRI as a novel, non-invasive alternative to histological evaluation, for the quantification of both interstitial and replacement myocardial fibrosis.
In accordance with an exemplary embodiment as outlined briefly above, eight samples of myocardium were obtained from deceased patients. Each sample of ventricular myocardium was 1 to 2 cm in thickness, and cut at the mid-level of the ventricular septum to include left and right ventricular free walls. All samples were stored at −80° C. until time of analysis.
A pre-contrast MRI was performed approximately 10-12 hours after thawing each sample. […] The longitudinal relaxation time T1 of myocardial tissue and saline was measured with a spin-echo MRI pulse sequence with non-slice-selective inversion pulse, and for 12-15 inversion delays (inversion times in the range from T1=50 to 2000 ms). […]
After the first MRI scan, the sample was incubated at 3-4° C. in a gadodiamide—saline solution for 24 hours (initial gadodiamide concentration in saline before immersion of tissue slice was ˜3 mM; saline R1 at 3 Tesla after 24 hours incubation: 3.9±0.3 s^−1). […] The effects of duration of thawing were also evaluated. […] Accordingly, these two sets of samples with different durations of thawing were analyzed separately. […]

[2] = at 37° C.; cited from earlier work

mean gadodiamide distribution volume (with 95% confidence interval) ([1]; interstitial fibrosis myocardium): 0.43+/−0.22 | mean gadodiamide distribution volume (with 95% confidence interval) ([1]; normal myocardium): 0.17+/−0.05 | mean gadodiamide distribution volume (with 95% confidence interval) ([1]; replacement fibrosis myocardium): 0.46+/−0.05
Compound: CNC(=O)CN(CCN(CCN(CC(=O)[O-])CC(=O)NC)CC(=O)[O-])CC(=O)[O-].[Gd+3] [gadodiamide]
osmolality [2]: 789 mOsmol/kg water

Reference: patent US10076246B2, “Method and apparatus for noninvasive quantitative detection of fibrosis in normal and viable myocardium by MRI” (Oregon Health & Science University, priority 2007, dated 2018)
